Calls of active or inactive are those of the source. No rule for the calls is given here.
Test system: CCRIS mutagenicity, Ames/micronucleus/aberration tests
Assay: CCRIS mutagenicity studies
[1] = Test System: AMES SALMONELLA TYPHIMURIUM, Strain/Indicator: TA98, Metabolic Activation: NONE, Method: PREINCUBATION
[2] = Test System: AMES SALMONELLA TYPHIMURIUM, Strain/Indicator: TA100, Metabolic Activation: NONE, Method: PREINCUBATION
[3] = Test System: AMES SALMONELLA TYPHIMURIUM, Strain/Indicator: TA1535, Metabolic Activation: NONE, Method: PREINCUBATION
[4] = Test System: AMES SALMONELLA TYPHIMURIUM, Strain/Indicator: TA98, Metabolic Activation: NONE, Method: STANDARD PLATE
[5] = Test System: AMES SALMONELLA TYPHIMURIUM, Strain/Indicator: TA98, Metabolic Activation: RAT, LIVER, S-9, AROCLOR 1254, Method: STANDARD PLATE
[6] = Test System: AMES SALMONELLA TYPHIMURIUM, Strain/Indicator: TA100, Metabolic Activation: NONE, Method: STANDARD PLATE
[7] = Test System: AMES SALMONELLA TYPHIMURIUM, Strain/Indicator: TA100, Metabolic Activation: RAT, LIVER, S-9, AROCLOR 1254, Method: STANDARD PLATE

Structure (SMILES): O=C1C=CC(=O)c2c(O)ccc(O)c21
- mutagenic call (Test System: AMES SALMONELLA TYPHIMURIUM, Strain/Indicator: TA97, Metabolic Activation: NONE, Method: PREINCUBATION): active; positive
- mutagenic call (Test System: AMES SALMONELLA TYPHIMURIUM, Strain/Indicator: TA97, Metabolic Activation: RAT, LIVER, S-9, PHENOBARBITAL AND 5,6-BENZOFLAVONE, Method: PREINCUBATION): active; positive
- mutagenic call [1]: inactive; negative
- mutagenic call (Test System: AMES SALMONELLA TYPHIMURIUM, Strain/Indicator: TA98, Metabolic Activation: RAT, LIVER, S-9, PHENOBARBITAL AND 5,6-BENZOFLAVONE, Method: PREINCUBATION): inactive; negative
- mutagenic call [2]: active; positive
- mutagenic call (Test System: AMES SALMONELLA TYPHIMURIUM, Strain/Indicator: TA100, Metabolic Activation: RAT, LIVER, S-9, PHENOBARBITAL AND 5,6-BENZOFLAVONE, Method: PREINCUBATION): active; positive
- mutagenic call (Test System: AMES SALMONELLA TYPHIMURIUM, Strain/Indicator: TA102, Metabolic Activation: NONE, Method: PREINCUBATION): active; positive
- mutagenic call (Test System: AMES SALMONELLA TYPHIMURIUM, Strain/Indicator: TA102, Metabolic Activation: RAT, LIVER, S-9, PHENOBARBITAL AND 5,6-BENZOFLAVONE, Method: PREINCUBATION): active; positive
- mutagenic call (Test System: AMES SALMONELLA TYPHIMURIUM, Strain/Indicator: TA104, Metabolic Activation: NONE, Method: PREINCUBATION): active; positive
- mutagenic call (Test System: AMES SALMONELLA TYPHIMURIUM, Strain/Indicator: TA104, Metabolic Activation: RAT, LIVER, S-9, PHENOBARBITAL AND 5,6-BENZOFLAVONE, Method: PREINCUBATION): active; positive
- mutagenic call [3]: inactive; negative
- mutagenic call (Test System: AMES SALMONELLA TYPHIMURIUM, Strain/Indicator: TA1535, Metabolic Activation: RAT, LIVER, S-9, PHENOBARBITAL AND 5,6-BENZOFLAVONE, Method: PREINCUBATION): inactive; negative
- mutagenic call (Test System: AMES SALMONELLA TYPHIMURIUM, Strain/Indicator: TA1537, Metabolic Activation: NONE, Method: PREINCUBATION): inactive; negative
- mutagenic call (Test System: AMES SALMONELLA TYPHIMURIUM, Strain/Indicator: TA1537, Metabolic Activation: RAT, LIVER, S-9, PHENOBARBITAL AND 5,6-BENZOFLAVONE, Method: PREINCUBATION): active; positive
- mutagenic call (Test System: AMES SALMONELLA TYPHIMURIUM, Strain/Indicator: TA1538, Metabolic Activation: NONE, Method: PREINCUBATION): inactive; negative
- mutagenic call (Test System: AMES SALMONELLA TYPHIMURIUM, Strain/Indicator: TA1538, Metabolic Activation: RAT, LIVER, S-9, PHENOBARBITAL AND 5,6-BENZOFLAVONE, Method: PREINCUBATION): inactive; negative
- mutagenic call (Test System: AMES SALMONELLA TYPHIMURIUM, Strain/Indicator: TA2637, Metabolic Activation: NONE, Method: PREINCUBATION): active; positive
- mutagenic call (Test System: AMES SALMONELLA TYPHIMURIUM, Strain/Indicator: TA2637, Metabolic Activation: RAT, LIVER, S-9, PHENOBARBITAL AND 5,6-BENZOFLAVONE, Method: PREINCUBATION): active; positive

Structure (SMILES): Cc1ccc(N)cc1Cl
- mutagenic call [4]: inactive; negative
- mutagenic call [5]: inactive; negative
- mutagenic call [6]: inactive; negative
- mutagenic call [7]: inactive; negative
- mutagenic call (Test System: AMES SALMONELLA TYPHIMURIUM, Strain/Indicator: TA1535, Metabolic Activation: NONE, Method: STANDARD PLATE): inactive; negative
- mutagenic call (Test System: AMES SALMONELLA TYPHIMURIUM, Strain/Indicator: TA1535, Metabolic Activation: RAT, LIVER, S-9, AROCLOR 1254, Method: STANDARD PLATE): inactive; negative
- mutagenic call (Test System: AMES SALMONELLA TYPHIMURIUM, Strain/Indicator: TA1537, Metabolic Activation: NONE, Method: STANDARD PLATE): inactive; negative
- mutagenic call (Test System: AMES SALMONELLA TYPHIMURIUM, Strain/Indicator: TA1537, Metabolic Activation: RAT, LIVER, S-9, AROCLOR 1254, Method: STANDARD PLATE): inactive; negative
- mutagenic call (Test System: AMES SALMONELLA TYPHIMURIUM, Strain/Indicator: TA1538, Metabolic Activation: NONE, Method: STANDARD PLATE): inactive; negative
- mutagenic call (Test System: AMES SALMONELLA TYPHIMURIUM, Strain/Indicator: TA1538, Metabolic Activation: RAT, LIVER, S-9, AROCLOR 1254, Method: STANDARD PLATE): inactive; negative
- mutagenic call (Test System: CHINESE HAMSTER OVARY, Strain/Indicator: CHO-K1-BH4 (HPRT)/6-THIOGUANINE, Metabolic Activation: NONE): inactive; negative
- mutagenic call (Test System: CHINESE HAMSTER OVARY, Strain/Indicator: CHO-K1-BH4 (HPRT)/6-THIOGUANINE, Metabolic Activation: RAT, LIVER, S-9, AROCLOR 1254): inactive; negative

Structure (SMILES): CCCCOCC1CO1 (stereo not drawn)
- mutagenic call (Test System: AMES SALMONELLA TYPHIMURIUM, Strain/Indicator: TA100, Metabolic Activation: HAMSTER, LIVER, S-9, AROCLOR 1254 (10%), Method: PREINCUBATION): active; positive
- mutagenic call [2]: active; positive
- mutagenic call (Test System: AMES SALMONELLA TYPHIMURIUM, Strain/Indicator: TA100, Metabolic Activation: NONE, Method: SPOT): active; positive
- mutagenic call (Test System: AMES SALMONELLA TYPHIMURIUM, Strain/Indicator: TA100, Metabolic Activation: RAT, LIVER, S-9, AROCLOR 1254 (10%), Method: PREINCUBATION): active; positive
- mutagenic call (Test System: AMES SALMONELLA TYPHIMURIUM, Strain/Indicator: TA1535, Metabolic Activation: HAMSTER, LIVER, S-9, AROCLOR 1254 (10%), Method: PREINCUBATION): active; positive
- mutagenic call [3]: active; positive
- mutagenic call (Test System: AMES SALMONELLA TYPHIMURIUM, Strain/Indicator: TA1535, Metabolic Activation: RAT, LIVER, S-9, AROCLOR 1254 (10%), Method: PREINCUBATION): active; positive

Structure (SMILES): O=S(Cl)Cl
- mutagenic call (Test System: AMES SALMONELLA TYPHIMURIUM, Strain/Indicator: TA100, Metabolic Activation: HAMSTER, LIVER, S-9, AROCLOR 1254 (2.5-20%), Method: PREINCUBATION): active; positive
- mutagenic call (Test System: AMES SALMONELLA TYPHIMURIUM, Strain/Indicator: TA102, Metabolic Activation: HAMSTER, LIVER, S-9, AROCLOR 1254, Method: PREINCUBATION): active; positive
- mutagenic call (Test System: AMES SALMONELLA TYPHIMURIUM, Strain/Indicator: TA102, Metabolic Activation: RAT, LIVER, S-9, AROCLOR 1254, Method: PREINCUBATION): active; positive
- mutagenic call (Test System: Mouse lymphoma, Strain/Indicator: L5178Y (tk+/tk-), Metabolic Activation: None, Method: Suspension/plate): active; equivocal (previous evaluation positive)
- mutagenic call (Test System: Mouse lymphoma, Strain/Indicator: L5178Y (tk+/tk-), Metabolic Activation: Rat, Liver, S-9, Aroclor 1254, Method: Suspension/plate): inactive; inconclusive (previous evaluation negative)

Structure (SMILES): C[C@H]1CCC[C@@]2(C)CCCC[C@]12O
- mutagenic call [4]: inactive; negative
- mutagenic call [5]: inactive; negative
- mutagenic call [6]: inactive; negative
- mutagenic call [7]: inactive; negative

Structure (SMILES): c1ccc2c(c1)-c1ccccc1C1OC21 (stereo not drawn)
- mutagenic call [4]: active; positive

Structure (SMILES): CCN(O)CC
- mutagenic call (Test System: UDS HUMAN LYMPHOCYTES, Strain/Indicator: THY INCORP (NON-S-PHASE), Metabolic Activation: NONE, Method: LIQUID SCINTILLATION COUNTING): active; positive

Structure (SMILES): CCc1ccccc1[N+](=O)[O-]
- mutagenic call [1]: inactive; negative
- mutagenic call (Test System: AMES SALMONELLA TYPHIMURIUM, Strain/Indicator: TA98, Metabolic Activation: RAT, LIVER, S-9, KANECHLOR 500, Method: PREINCUBATION): inactive; negative
- mutagenic call [2]: inactive; negative
- mutagenic call (Test System: AMES SALMONELLA TYPHIMURIUM, Strain/Indicator: TA100, Metabolic Activation: RAT, LIVER, S-9, KANECHLOR 500, Method: PREINCUBATION): inactive; negative

Structure (SMILES): Cn1c([N+](=O)[O-])nc2ccccc21
- mutagenic call [4]: active; positive
